Earlier results in patent EP3878534A1, “EXTRACTION AND BACK-EXTRACTION OF HYDROPHOBIC COMPOUNDS USING DEEP EUTECTIC SOLVENT WITH TUNEABLE HYDROPHOBICITY” (Wageningen Universiteit, priority 2020, dated 2021).

Assays:
[1] = octanol/water, individual compound

SMILES | Log Poct (Pub Chem) [1] | pKa
CCCCCCCC(=O)O [Octanoic acid] | 3.05 | 
CCCCCC(=O)O [Hexanoic acid] | 1.92 | 4.88
CC1CCC(C(C)C)C(O)C1 (racemic) [DL-Menthol, 2-isopropyl-5-methylcyclohexanol] | 3.20 | 
